# Measured values published in patent US6686181B1, “Method for the production of L-amino acids from their racemic N-aceytyl-D, L-derivatives by enzymatic racemate cleavage by means of isolated recombinant enzymes” (Aventis Corporation GmbH, priority 1999, dated 2004).
# Tested on: deac1 protein
# Assay: Substrate specificity and stereoselectivity of the purified deac1 enzyme (free amino acid formed, amino acid analyzer)
# Assay type: biochemical, Stenotrophomonas sp.
# Settings: 5 μg purified enzyme, 25 mM substrate, pH 7.5, 37° C., 1 h; specific activity with hippuric acid set equal to 100%
# Protocol: For the investigation of substrate specificity and stereospecificity of the deac1 protein, 5 μg each of purified enzyme were incubated in 20 μl batches in 10 mM NaCl, 10 mM Na phosphate, pH=7.5 with 25 mM each of the N-acetyl-L-amino acids or of the corresponding D enantiomers mentioned in Table 1. For comparison, hippuric acid (N-benzoylglycine), the natural substrate of deacetylase, was employed. […] Table 1 indicates the relative deacetylase activities for the L-enantiomers of the various substrates.
row,Rel. activity [%],SMILES
1,0,CSCC[C@H](NC(C)=O)C(=O)O [N-Ac-L-methionine]
2,24,CC(=O)N[C@@H](Cc1ccccc1)C(=O)O [N-Ac-L-phenylalanine]
3,0,CC(=O)N1CCC[C@H]1C(=O)O [N-Ac-L-proline]
4,4,CC(=O)N[C@@H](CO)C(=O)O [N-Ac-L-serine]
5,0.4,CC(=O)N[C@@H](Cc1c[nH]c2ccccc12)C(=O)O [N-Ac-L-tryptophan]

# Same assay, conditions: 25 mM substrate, 37° C., 1 h
row,cleavage of substrate by the deac1 enzyme (in words),SMILES
1,cleaves,"O=C(O)CNC(=O)c1ccccc1 [Hippuric acid (N-benzoylglycine), N-benzoylglycine, reference compound]"
2,cleaves,CC(=O)N[C@@H](CCC(=O)O)C(=O)O [N-Ac-L-glutamic acid]
3,cleaves,CC(=O)N[C@@H](CCC(N)=O)C(=O)O [N-Ac-L-glutamine]
4,cleaves,CC(=O)N[C@@H](Cc1c[nH]cn1)C(=O)O [N-Ac-L-histidine]
5,cleaves,CC(=O)N[C@@H](CC(C)C)C(=O)O [N-Ac-L-leucine]
6,cleaves,CC(=O)N[C@@H](CCCN)C(=O)O [N-Ac-L-ornithine]
7,cleaves,CC(=O)N[C@@H](Cc1ccccc1)C(=O)O [N-Ac-L-phenylalanine]
8,cleaves,CC(=O)NCC(=O)O [N-Ac-glycine]

row,SMILES,cleavage of substrate by the deac1 enzyme (in words)
1,CC(=O)N[C@@H](CCP(C)(=O)O)C(=O)O [N-Ac-L-phosphinothricin],cleaves
